Data taken from publication PMC5510229, “BCAT1 controls metabolic reprogramming in activated human macrophages and is associated with inflammatory diseases” (Nature Communications, 2017).

Molecular target: T1, recombinant human BCAT1 (Homo sapiens, UniProt P54687)
T1 construct: purchased Abcam
T1 sequence (P54687 1-386): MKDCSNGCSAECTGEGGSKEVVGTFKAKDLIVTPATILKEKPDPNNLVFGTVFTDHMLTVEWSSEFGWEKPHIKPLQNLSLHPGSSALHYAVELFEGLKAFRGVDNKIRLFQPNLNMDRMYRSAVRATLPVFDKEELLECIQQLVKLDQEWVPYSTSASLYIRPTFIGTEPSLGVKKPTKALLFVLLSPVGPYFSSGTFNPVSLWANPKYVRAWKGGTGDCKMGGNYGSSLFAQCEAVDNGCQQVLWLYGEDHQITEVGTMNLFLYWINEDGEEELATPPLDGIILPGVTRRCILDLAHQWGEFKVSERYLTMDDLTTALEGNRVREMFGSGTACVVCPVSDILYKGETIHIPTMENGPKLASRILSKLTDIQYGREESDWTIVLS
Assay: BCAT1 aminotransferase enzymatic assay (continuous fluorometric)
Assay type: biochemical
Settings: 100 ng recombinant protein
From the text: To gain more insights into the role of BCAT enzymes in macrophages, we set out to investigate these in human monocyte-derived macrophages (hMDMs) by subjecting these cells to RNA-sequencing (Fig. 1a). […] To examine the role of BCAT1 in macrophage metabolism and inflammatory diseases, we identified a novel BCAT1 inhibitor, ERG240, using molecular modelling approaches based on the X-ray crystal structures of BCAT1 (ref. [22]). ERG240 is a water-soluble structural analogue of leucine (Fig. 1b). Its ability to suppress the BCAT1 aminotransferase activity was measured in a continuous fluorometric assay (ref. [23] and see Supplementary Methods). […]
Figure 1 BCAT1 expression and inhibition in human macrophages. […] (d) Relative expression of IRG1, HIF1A and IL1B measured by qRT-PCR in control, ERG240-treated (20 mM, 3 h), LPS treated (100 ng ml^−1, 3 h), and LPS+ERG240 treated (LPS, 100 ng ml^−1; ERG240, 20 mM for 3 h) hMDMs. ns, non-significant. […]
Finall y, th e libraries were size selected using AM Pure XP Beads (Beckman Coulter) purified and their quality was checked using Agilent 2100 Bioanalyzer. Samples were randomized to avoid batch effects and multiplexed libraries wer e run on a single lan e (6 samples/lane) of the HiSeq 2500 platform (Illumina) to generate 100bp paired-end reads. […]
respectivel y. RNA-seq reads were aligned to human (hg19) or mouse (mm10) reference genomes using tophat2. […]

`CC(=O)C(C)CCC(=O)O` (stereo not shown) [ERG240] gave an IC50 of 0.1 to 1 nM.
